Source: patent US6689609B1, “Enhancing germination of plant somatic embryos by priming” (Cellfor Inc., priority 1999, dated 2004)

Legend:
[1] = system: interior spruce somatic embryos; experiment: Plant growth regulators added to horticultural growing substrate after sowing: ex vitro germination and rooting of nutriprimed interior spruce somatic embryos; format: in vivo, Picea glauca (Moench) Voss x P. engelmannii Parry ex Engelm.; details: primed
From the text: The second study assessing the effects of plant growth regulators on germination performance of nutriprimed somatic embryos involved additions of plant growth regulators to the horticultural growing substrates after the nutriprimed somatic embryos were sown ex vitro. In this study, somatic embryos from interior spruce genotypes 4-2809, 23-2672, and I-1026 were desiccated and stored as described for the first growth regulator study. Prior to nutripriming, genotype I-1026 was imbibed with a matripriming step which consisted of placing the desiccated embryos onto a screen, and then placing the screen on the surface of an agar substrate gelled with 3% phytogel foe 18 hrs. After this imbibition step was completed for genotype I-1026, all three genotypes were nutriprimed for 84 hr in 3% w/v sucrose m24GMD nutripriming solutions and then sown ex vitro into 400-cavity styrofoam miniplug trays filled with peat bound by a polymer (Grow-Tech Inc., San Bautista, Calif.). After sowing was completed, the nutriprimed embryo received exogenous applications of one of the treatments described in Table 8.3.
After the exogenous application of the plant growth regulator treatments, the blocks were placed onto a non-sterile high-humidity (≧95% RH) germination chamber for one week. Immediately after the trays containing ex vitro sown nutriprimed embryos were placed into the non-sterile high-humidity germination chamber, they were misted with m24GMD solution containing 3% w/v sucrose until the surfaces of the non-sterile growing substrates were well-wetted, and then at daily intervals for a period of 7 days. After the initial 7-day period in the non-sterile high-humidity germination environment, the trays were moved to a non-sterile misting chamber (RH ranged between 75-90%) for two more weeks of growth under an 18-hour photoperiod of […] PAR with day-night temperatures of 18-23° C. Daily applications of the m24GMD nutrient solution containing 3% w/v sucrose were misted onto the germinants through to the end of the two-week period in the misting chamber. Aseptic techniques or conditions were not used for application of the nutrient solutions, nor for the germination and growing environments during the 3-week culture period.
At the end of the three-week germination period, all survived germinants were counted and examined for root initiation. Germination and rooting percentages were calculated based on total number of embryos sown in each replicate.

[2] = system: interior spruce somatic embryos; experiment: Plant growth regulators added to nutripriming solutions: ex vitro germination and rooting of interior spruce somatic embryos; format: in vivo, Picea glauca (Moench) Voss x P. engelmannii Parry ex Engelm.
From the text: Mature somatic embryos of interior spruce (Picea glauca (Moench) Voss x P. engelmannii Parry ex Engelm.) genotypes 4-2809, 23-2672, and I-1026 were desiccated with the HRHT treatment. Genotype I-1026 was further desiccated at 85% RH for three days, then stored at −20C. Prior to nutripriming, genotype I-1026 was imbibed with a matripriming step which consisted of placing the desiccated embryos onto a screen, and then placing the screen on the surface of an agar substrate gelled with 3% phytogel for 18 hrs. After this imbibition step was completed for genotype I-1026, all three genotypes were nutriprimed for 84 hr in 3% w/v sucrose m24GMD nutripriming solutions amended with the plant growth regulators described in Table 8.1.
After the nutripriming step was completed, the nutriprimed somatic embryos were sown ex vitro into 400-cavity styrofoam miniplug trays filled with peat bound by a polymer (Grow-Tech Inc., San Bautista, Calif.). After sowing, the trays were placed into a non-sterile high-humidity (≧95% RH) germination chamber for one week. In both studies, immediately after the trays containing ex vitro sown nutriprimed embryos were placed into the non-sterile high-humidity germination chamber, they were misted with m24GMD solution containing 3% w/v sucrose until the surfaces of the non-sterile growing substrates were well-wetted, and subsequently at daily intervals for a period of 7 days. After the initial 7-day period in the non-sterile high-humidity germination environment, the trays were moved to a non-sterile misting chamber (RH ranged between 75-90%) for two more weeks of growth under an 18-hour photoperiod of […] PAR with day-night temperatures of 18-23° C. Daily applications of the m24GMD nutrient solution containing 3% w/v sucrose were misted onto the germinants through to the end of the two-week period in the misting chamber. Aseptic techniques or conditions were not used for application of the nutrient solutions, or for the germination and growing environments during the 3-week culture period.
At the end of the three-week germination period, all germinated embryos and seedlings were counted and examined for root initiation. Germination and rooting percentages were calculated based on total number of embryos sown in each replicate. The rooting percentage measures the plant conversion rate since the survived germinants can have perfectly elongated and formed shoot, but without root initiation.

[3] = genotype 4-2809, HRHT, IBA 0.2 μM
[4] = genotype 4-2809, HRHT, substrate given no regulator or IBA 0.1 μM alone, + BA 0.02 μM, + BA 0.02 μM + GA4/7 0.2 μM (so in the source), or + GA4/7 0.1 μM
[5] = genotype 23-2672, HRHT, IBA 0.2 μM
[6] = genotype 23-2672, HRHT, substrate given no regulator or IBA 0.1 μM alone, + BA 0.02 μM, + BA 0.02 μM + GA4/7 0.2 μM (so in the source), or + GA4/7 0.1 μM
[7] = genotype I-1026, 85% & frozen, IBA 0.2 μM
[8] = genotype I-1026, 85% & frozen, substrate given no regulator or IBA 0.1 μM alone, + BA 0.02 μM, + BA 0.02 μM + GA4/7 0.2 μM (so in the source), or + GA4/7 0.1 μM
[9] = genotype 4-2809, HRHT, IBA 0.1 μM in priming solution
[10] = genotype 4-2809, HRHT, priming solution with no regulator or IBA 0.05 μM alone, + BA 0.01 μM, + BA 0.01 μM + GA4/7 0.01 μM, or + GA4/7 0.05 μM
[11] = genotype 23-2672, HRHT, IBA 0.1 μM in priming solution
[12] = genotype 23-2672, HRHT, priming solution with no regulator or IBA 0.05 μM alone, + BA 0.01 μM, + BA 0.01 μM + GA4/7 0.01 μM, or + GA4/7 0.05 μM
[13] = genotype I-1026, 85% & frozen, IBA 0.1 μM in priming solution
[14] = genotype I-1026, 85% & frozen, priming solution with no regulator or IBA 0.05 μM alone, + BA 0.01 μM, + BA 0.01 μM + GA4/7 0.01 μM, or + GA4/7 0.05 μM

## O=C(O)CCCc1c[nH]c2ccccc12 [IBA, indole-butyric-acid]
[1]; [3]
  Germination %: 97.5 ± 1.4%
  Rooting %: 78.8 ± 7.5%
[1]; [4]
  Germination %: 92.5 ± 7.5%
  Rooting %: 75.0 ± 10.2%
[1]; [5]
  Germination %: 72.5 ± 10.9%
  Rooting %: 67.5 ± 10.1%
[1]; [6]
  Germination %: 72.5 ± 11. %
  Rooting %: 61.3 ± 13.4%
[1]; [7]
  Germination %: 80.0 ± 6.8%
  Rooting %: 65.0 ± 5.4%
[1]; [8]
  Germination %: 91.3 ± 5.5%
  Rooting %: 66.3 ± 3.7%
[2]; [9]
  Germination %: 68.8 ± 5.2%
  Rooting %: 51.3 ± 4.3%
[2]; [10]
  Germination %: 92.5 ± 6.0%
  Rooting %: 82.5 ± 6.0%
[2]; [11]
  Germination %: 82.5 ± 9.7%
  Rooting %: 72.5 ± 6.3%
[2]; [12]
  Germination %: 90.0 ± 3.5%
  Rooting %: 71.3 ± 6.6%
[2]; [13]
  Germination %: 88.8 ± 6.6%
  Rooting %: 58.8 ± 5.9%
[2]; [14]
  Germination %: 93.8 ± 2.4%
  Rooting %: 66.3 ± 4.7%
